Series [1] in a line: Phase 1 open-label drug interaction study: effect of ketoconazole on the pharmacokinetics of NBI-98854 in healthy subjects. In kind it is in vivo, human. The note with it: for half-life: read-out: t1/2 Mean (SD) (converted); for CL/F Mean (SD): analyte NBI-98854; for AUC(0-inf): read-out: AUC0-∞ Mean (SD); for Cmax: read-out: Cmax Mean (SD). The procedure:
All subjects received the same treatment. […] Subjects were given meals upon completion of study assessments/dosing and at regular meal times during their stay in the research unit. […] Blood specimens to determine ketoconazole plasma concentrations were collected predose through Day 9. Safety and tolerability was assessed through Day 10. […] The tmax was analyzed using non-parametric methods. […] Safety data were summarized using descriptive statistics.

Series [2] has as its system more than 80 targets (GPCRs, cell-surface monoamine transporters, ion channels including HERG). Nature of the series: Cerep multi-target activity screen. As to conditions: broad panel screen.
For the next series, the target named is T1, human VMAT1 transporter (Homo sapiens, UniProt P54219).
T1 construct: expressed in transfected cells
T1 sequence (P54219 1-525): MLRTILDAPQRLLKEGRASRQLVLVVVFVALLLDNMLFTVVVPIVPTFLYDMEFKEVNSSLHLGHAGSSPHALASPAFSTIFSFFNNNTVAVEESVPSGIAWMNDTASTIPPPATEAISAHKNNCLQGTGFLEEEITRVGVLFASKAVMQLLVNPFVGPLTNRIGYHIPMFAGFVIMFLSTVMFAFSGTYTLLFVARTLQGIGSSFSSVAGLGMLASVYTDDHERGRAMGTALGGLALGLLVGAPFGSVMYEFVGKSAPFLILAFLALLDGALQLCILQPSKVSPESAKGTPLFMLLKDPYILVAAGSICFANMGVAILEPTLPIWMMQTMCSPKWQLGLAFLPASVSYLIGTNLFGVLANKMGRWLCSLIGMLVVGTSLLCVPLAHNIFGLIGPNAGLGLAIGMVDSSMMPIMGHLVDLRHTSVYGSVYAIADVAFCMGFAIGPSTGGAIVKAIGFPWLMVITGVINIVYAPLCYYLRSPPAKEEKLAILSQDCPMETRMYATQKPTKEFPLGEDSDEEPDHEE
Kind of series: Uptake in cells expressing VMAT1. Format: cell-based. The note with it: concentrations up to 10 μM.

A short description of series [3]: Safety and tolerability in the Phase 1 ketoconazole interaction study. Format: in vivo. As to conditions: for Subjects with TEAE: Constipation / Subjects with TEAE: Dizziness postural / Subjects with TEAE: Gastrointestinal Disorders / Subjects with TEAE: Headache / Subjects with TEAE: Injury, Poisoning and Procedural Complications / Subjects with TEAE: Nausea / Subjects with TEAE: Nervous System Disorders / Subjects with TEAE: Procedural dizziness / Subjects with treatment-emergent adverse event: Overall: N = 24. The procedure: This was a Phase 1, single-center, open-label, drug interaction study conducted in 24 healthy male and female subjects.
All subjects received the same treatment. Subjects received a single dose of 50 mg NBI-98854 on Days 1 and 6 at approximately 0800 hours. In addition, subjects received 200 mg ketoconazole twice daily (bid) on Days 5 through 9 at approximately 0800 and 2000 hours. Subjects were required to fast overnight from approximately 10 hours before until 4 hours after NBI-98854 dose on Days 1 and 6. Subjects were given meals upon completion of study assessments/dosing and at regular meal times during their stay in the research unit.
TEAEs are summarized below. There were no pretreatment AEs. […] Five subjects (20.8%) experienced 6 AEs during the study; all AEs occurred after the initial treatment with NBI-98854 alone. […] The only AE that occurred in >1 subject was headache (2 subjects, 8.3%). […] Two events were considered possibly related to study drug, 1 event of headache and the event of dizziness postural. The other event of headache was considered unlikely related to study drug.

The mark [4] stands for this setting: NBI-98854 (50 mg) + Ketoconazole (200 mg).
[5] abbreviates: both sexes, human, oral, analyte NBI-98854 in plasma, NBI-98854 (50 mg) alone, N = 24.
Where [6] appears, read: both sexes, human, oral, analyte NBI-98854 in plasma, NBI-98854 (80 mg) + Ketoconazole (200 mg), N = 24.

Entries after “also recorded” stand apart in the source; their conditions may differ. Read-outs that look alike come from different tables or passages of the source.

For `CC(=O)N1CCN(c2ccc(OCC3COC(Cn4ccnc4)(c4ccc(Cl)cc4Cl)O3)cc2)CC1` (centres unmarked) [Ketoconazole, ketoconazole, reference compound], the concentration at 1 h in series [1] (both sexes, human, plasma, oral, 200 mg ketoconazole bid, Days 5 to 9 at 1 hour postdose, read-out: Mean plasma concentrations of ketoconazole) lay in the range of 1640 to 5180 ng/mL.
`COc1cc2c(cc1OC)[C@H]1C[C@@H](O)[C@H](CC(C)C)CN1CC2` [NBI-98782, (2R, 3R,11bR)-3-isobutyl-9,10-dimethoxy-1,3,4,6,7,11b-hexahydro-2H-pyrido[2,1-a]isoquinolin-2-ol]: in series [2], the “affinity for more than 80 binding sites, including receptors, monoamine transporters, and ion channels” value is reported as “little to no affinity”. In addition, at human VMAT1 transporter (listed as R,R,R-DHTBZ), the “inhibition of uptake through VMAT1” value was “no significant inhibitory activity; also recorded: no significant effect”. In addition, in series [1] (both sexes, human, plasma, oral, 50 mg), the half-life is 18 h.
For `COc1cc2c(cc1OC)[C@H]1C[C@@H](OC(=O)[C@@H](N)C(C)C)[C@H](CC(C)C)CN1CC2` [NBI-98854, (S)-2-amino-3-methyl-butyric acid (2R, 3R,11bR)-3-isobutyl-9,10-dimethoxy-1,3,4,6,7,11b-hexahydro-2H-pyrido[2,1-a]isoquinolin-2-yl ester], the “affinity for more than 80 binding sites, including receptors, monoamine transporters, and ion channels” value in series [2] is given as “little to no affinity”. On human VMAT1 transporter (listed as VBZ), the “inhibition of uptake through VMAT1” value is listed as “no significant inhibitory activity; also recorded: no significant effect”. For the same compound, the “Subjects with headache (only AE in >1 subject)” value in series [3] (2 subjects) is listed as 8.3%. Further, in series [3] (setting [4]), the “Subjects with TEAE: Constipation” value is 0 n, %; the “Subjects with TEAE: Dizziness postural” value is 0 n, %; the “Subjects with TEAE: Gastrointestinal Disorders” value is 0 n, %; the “Subjects with TEAE: Headache” value was 0 n, %. Also, in series [3] (setting [4]), the “Subjects with TEAE: Injury, Poisoning and Procedural Complications” value is 0 n, %; the “Subjects with TEAE: Nausea” value was 0 n, %; the “Subjects with TEAE: Nervous System Disorders” value is 0 n, %; the “Subjects with TEAE: Procedural dizziness” value is listed as 0 n, %. Also, the “Subjects with treatment-emergent adverse event: Overall” value in series [3] (setting [4]) is listed as 0 n, %. Also, in series [3] (NBI-98854 (50 mg)), the “Subjects with TEAE: Constipation” value is listed as 1 (4.2) n, %; the “Subjects with TEAE: Dizziness postural” value was 1 (4.2) n, %; the “Subjects with TEAE: Gastrointestinal Disorders” value is 2 (8.3) n, %; the “Subjects with TEAE: Headache” value is on record as 2 (8.3) n, %. In series [3] (NBI-98854 (50 mg)), the “Subjects with TEAE: Injury, Poisoning and Procedural Complications” value is 1 (4.2) n, %; the “Subjects with TEAE: Nausea” value was 1 (4.2) n, %; the “Subjects with TEAE: Nervous System Disorders” value is 3 (12.5) n, %; the “Subjects with TEAE: Procedural dizziness” value is reported as 1 (4.2) n, %. Also, the “Subjects with treatment-emergent adverse event: Overall” value in series [3] (NBI-98854 (50 mg)) is on record as 5 (20.8) n, %. In addition, in series [3] (administered alone and concomitantly with ketoconazole in healthy volunteers), the Tolerability entry is reported as “well tolerated”. The “Subjects who experienced AEs during the study” value in series [3] (all AEs after the initial treatment with NBI-98854 alone, onset Day 1 or 2, five subjects, 6 AEs) is listed as 20.8%. Further, in series [3] (during the study), the “12-lead ECGs” value is on record as “no abnormal ECGs that were assessed as clinically significant”, the Body weight changes entry is given as “no important changes in body weight” and the Physical examination findings entry is reported as “No abnormal physical examination findings”. In addition, the “Vital signs including orthostatic changes” value in series [3] (postdose) is “No clinically relevant postdose mean vital signs changes”. Moreover, the “Clinical laboratory values (hematology, serum chemistry, urinalysis)” value in series [3] (pre- and postdose) is “no results considered clinically significant”. In addition, in series [3] (whole study), the “Deaths, SAEs, discontinuations due to an AE” value is listed as “no deaths, SAEs, or discontinuations due to an AE” and the “Intensity of AEs” value is given as “mild in intensity”. Besides, the “CL/F Mean (SD)” value in series [1] (NBI-98854 (50 mg) alone, N = 24) was 16.3 (5.94) L/hr. Moreover, the “CL/F Mean (SD)” value in series [1] (NBI-98854 (80 mg) + Ketoconazole (200 mg), N = 24) is 7.96 (2.75) L/hr. Besides, the “Tlag Mean (SD)” value in series [1] (analyte NBI-98854 in plasma, NBI-98854 (50 mg) alone, N = 24) is reported as 0.11 (0.13) hours. For the same compound, the “Tlag Mean (SD)” value in series [1] (analyte NBI-98854 in plasma, NBI-98854 (80 mg) + Ketoconazole (200 mg), N = 24) is recorded as 0.02 (0.07) hours. In series [1] (setting [5]), the AUC(0-inf) amounted to 3470 ng·h/mL and the Cmax is 425 ng/mL. In series [1] (setting [6]), the AUC(0-inf) came out at 7340 ng·h/mL, the Cmax worked out at 624 ng/mL and the half-life was 20 h. For the same compound, the MRT in series [1] (both sexes, human, oral, analyte NBI-98854 in plasma, NBI-98854 (80 mg) + Ketoconazole (200 mg), N = 24, read-out: MRT Mean (SD)) amounted to 22 h. The AUC(0-t) in series [1] (both sexes, human, plasma, oral, 50 mg, analyte NBI-98854 in plasma, NBI-98854 (50 mg) alone, N = 24, read-out: AUC0-24 Mean (SD)) stood at 2580 ng·h/mL. In addition, the AUC(0-t) in series [1] (both sexes, human, plasma, oral, 50 mg, analyte NBI-98854 in plasma, NBI-98854 (50 mg) alone, N = 24, read-out: AUC0-tlast Mean (SD)) was 3420 ng·h/mL. The AUC(0-t) in series [1] (both sexes, human, plasma, oral, analyte NBI-98854 in plasma, NBI-98854 (80 mg) + Ketoconazole (200 mg), N = 24, read-out: AUC0-24 Mean (SD)) was 4820 ng·h/mL. Besides, the AUC(0-t) in series [1] (both sexes, human, plasma, oral, analyte NBI-98854 in plasma, NBI-98854 (80 mg) + Ketoconazole (200 mg), N = 24, read-out: AUC0-tlast Mean (SD)) worked out at 7100 ng·h/mL.
As for `COc1cc2c(cc1OC)C1CC(=O)C(CC(C)C)CN1CC2` (centres unmarked) [TBZ, Tetrabenazine, reference compound], the “inhibition of uptake through VMAT1” value on human VMAT1 transporter was “no significant inhibitory activity; also recorded: no significant effect”.
As for `COC(=O)[C@H]1[C@H]2C[C@@H]3c4[nH]c5cc(OC)ccc5c4CCN3C[C@H]2C[C@@H](OC(=O)c2cc(OC)c(OC)c(OC)c2)[C@@H]1OC` [reserpine, reference compound], on human VMAT1 transporter, the “inhibition of uptake through VMAT1” value is on record as “substantially inhibited uptake through VMAT1”.
